# Target: T1, myeloperoxidase (MPO) (Homo sapiens, UniProt P05164)
# T1 sequence (P05164 49-745): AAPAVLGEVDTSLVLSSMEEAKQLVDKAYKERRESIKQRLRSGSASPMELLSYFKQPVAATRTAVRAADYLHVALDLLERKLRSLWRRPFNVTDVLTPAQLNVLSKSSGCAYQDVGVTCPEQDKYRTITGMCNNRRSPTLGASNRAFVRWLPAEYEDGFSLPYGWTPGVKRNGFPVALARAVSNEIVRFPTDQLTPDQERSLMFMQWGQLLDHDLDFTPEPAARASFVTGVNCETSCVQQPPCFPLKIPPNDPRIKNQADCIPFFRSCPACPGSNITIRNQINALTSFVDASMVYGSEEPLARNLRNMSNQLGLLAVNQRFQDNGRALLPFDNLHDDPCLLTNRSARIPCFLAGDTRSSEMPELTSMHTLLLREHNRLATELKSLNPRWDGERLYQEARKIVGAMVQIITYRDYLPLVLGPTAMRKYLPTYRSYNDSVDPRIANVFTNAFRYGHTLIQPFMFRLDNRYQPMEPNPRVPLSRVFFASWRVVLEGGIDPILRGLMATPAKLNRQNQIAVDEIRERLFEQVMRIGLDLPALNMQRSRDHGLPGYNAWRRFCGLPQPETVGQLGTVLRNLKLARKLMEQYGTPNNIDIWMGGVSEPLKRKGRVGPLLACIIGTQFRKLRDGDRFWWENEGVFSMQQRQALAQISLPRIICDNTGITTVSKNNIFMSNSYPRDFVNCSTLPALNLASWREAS
# Assay: MPO peroxidation assay (Amplex Red assay)
# Type: biochemical
# Settings: not given
# Experimental: MPO Peroxidation Assay (Amplex Red Assay)
# MPO peroxidation activity was measured in 100 mM KPi (pH 7.4) by utilizing the non-fluorescent reagent Amplex Red (Invitrogen catalog # A12222) which can be oxidized to the highly fluorescent resorufin. Amplex Red is oxidized by the peroxidase action of MPO to resorufin. Reactions were carried out in 50 μL total volume by adding a 25 μL mixture of 200 pM myeloperoxidase and 40 nM H2O2(Sigma #349887) to 100 nL inhibitor in 100% DMSO in a 384 well Perkin Elmer Optiplate. Enzyme and compound were preincubated for ten minutes at room temperature.
# After the ten minute preincubation, 25 μL of an Amplex Red mixture containing 200 μM Amplex Red and 10 mM H2O2 was added to the plate. Kinetic determinations were carried out immediately on a Perkin Elmer Envision (15 minute kinetic read, Ex: 535 nm, Em: 590 nm).
# IC50 values were calculated by determining the slope of the linear portion of the kinetic trace ([…]), and using that calculated slope to determine % inhibition occurring at each concentration of inhibitor using the following equation:
# [formula] where A=minimal Y value (activity level of inhibited sample), B=maximal Y value (activity level of uninhibited sample), C=Log IC50, D=Hill Slope, x=concentration of inhibitor. MPO Chlorination Assay (APF Assay)
row,IC50,SMILES
1,1 to 100 nM,"Cn1ccc(-c2cccc(COc3cc(N)nc4[nH]nnc34)c2)n1 [Example 5, 7-(3-(1-Methyl-1H-pyrazol-3-yl)benzyloxy)-3H-[1,2,3]triazolo[4,5-b]pyridin-5-amine]"
2,1 to 100 nM,"Nc1cc(OCc2cccc(Cl)c2)c2nn[nH]c2n1 [Example 10, 7-(3-Chlorobenzyloxy)-3H-[1,2,3]triazolo[4,5-b]pyridin-5-amine]"
3,1 to 100 nM,"Nc1cc(OCc2ccc(Cl)cc2)c2nn[nH]c2n1 [Example 11, 7-(4-Chlorobenzyloxy)-3H-[1,2,3]triazolo[4,5-b]pyridin-5-amine]"
4,1 to 100 nM,"Nc1cc(OCc2ccccc2Cl)c2nn[nH]c2n1 [Example 12, 7-(2-Chlorobenzyloxy)-3H-[1,2,3]triazolo[4,5-b]pyridin-5-amine]"

# Same assay, conditions: MPO peroxidation, potency range class; read-out: Amplex Red IC50
row,SMILES,IC50
1,"CCC(F)(F)C(Oc1cc(N)nc2[nH]nnc12)c1ccccc1 (racemic) [Example 135, 7-(2,2-Difluoro-1-phenylbutoxy)-3H-[1,2,3]triazolo[4,5-b]pyridin-5-amine]",101 to 999 nM
2,"CCC(F)(F)C(Oc1cc(N)nc2[nH]nnc12)c1ccccc1OC (racemic) [Example 136, 7-(2,2-Difluoro-1-(2-methoxyphenyl)butoxy)-3H-[1,2,3]triazolo[4,5-b]pyridin-5-amine]",101 to 999 nM
3,"Nc1cc(OC(c2ccccc2)C(F)F)c2nn[nH]c2n1 (racemic) [Example 138, 7-(2,2-Difluoro-1-phenylethoxy)-3H-[1,2,3]triazolo[4,5-b]pyridin-5-amine]",101 to 999 nM
4,"CCC(F)(F)C(Oc1cc(N)nc2[nH]nnc12)c1ccccc1 (single isomer, unassigned) [Example 137, 7-(2,2-Difluoro-1-phenylbutoxy)-3H-[1,2,3]triazolo[4,5-b]pyridin-5-amine]",1 to 100 nM
5,"Nc1cc(OCc2cccc(-n3cncn3)c2)c2nn[nH]c2n1 [Example 3, 7-(3-(1H-1,2,4-Triazol-1-yl)benzyloxy)-3H-[1,2,3]triazolo[4,5-b]pyridin-5-amine]",1 to 100 nM
6,"Nc1cc(OCc2cccc(S(=O)(=O)N3CCOCC3)c2)c2nn[nH]c2n1 [Example 4, 7-(3-(Morpholinosulfonyl)benzyloxy)-3H-[1,2,3]triazolo[4,5-b]pyridin-5-amine]",101 to 999 nM
7,"Cc1nccn1-c1cccc(COc2cc(N)nc3[nH]nnc23)c1 [Example 7, 7-(3-(2-Methyl-1H-imidazol-1-yl)benzyloxy)-3H-[1,2,3]triazolo[4,5-b]pyridin-5-amine]",101 to 999 nM
8,"Nc1cc(OCc2cccc(Oc3ccccc3)c2)c2nn[nH]c2n1 [Example 16, 7-(3-Phenoxybenzyloxy)-3H-[1,2,3]triazolo[4,5-b]pyridin-5-amine]",101 to 999 nM
9,"Nc1cc(OCc2ccc(OC(F)F)cc2)c2nn[nH]c2n1 [Example 17, 7-(4-(Difluoromethoxy)benzyloxy)-3H-[1,2,3]triazolo[4,5-b]pyridin-5-amine]",101 to 999 nM
10,"Nc1cc(OCc2ccccc2OCc2ccccc2)c2nn[nH]c2n1 [Example 20, 7-(2-(Benzyloxy)benzyloxy)-3H-[1,2,3]triazolo[4,5-b]pyridin-5-amine]",1 to 100 nM
11,"COC(=O)c1cccc(COc2cc(N)nc3[nH]nnc23)c1 [Example 22, Methyl 3-((5-amino-3H-[1,2,3]triazolo[4,5-b]pyridin-7-yloxy)methyl)benzoate]",1 to 100 nM
12,"Nc1cc(OCc2cccc(C(=O)N3CCOCC3)c2)c2nn[nH]c2n1 [Example 25, (3-((5-Amino-3H-[1,2,3]triazolo[4,5-b]pyridin-7-yloxy)methyl)phenyl)(morpholino)methanone]",101 to 999 nM
13,"Nc1cc(OCc2cc(C(F)(F)F)cc(C(F)(F)F)c2)c2nn[nH]c2n1 [Example 29, 7-(3,5-Bis(trifluoromethyl)benzyloxy)-3H-[1,2,3]triazolo[4,5-b]pyridin-5-amine]",1 to 100 nM
14,"Nc1cc(OCc2cc(OC(F)F)ccc2F)c2nn[nH]c2n1 [Example 32, 7-(5-(Difluoromethoxy)-2-fluorobenzyloxy)-3H-[1,2,3]triazolo[4,5-b]pyridin-5-amine]",1 to 100 nM
15,"NC(=O)c1cccc(COc2cc(N)nc3[nH]nnc23)c1Cl [Example 33, 3-((5-Amino-3H-[1,2,3]triazolo[4,5-b]pyridin-7-yloxy)methyl)-2-chlorobenzamide]",101 to 999 nM
16,"Nc1cc(OCc2ccccc2OCC(=O)NCC2CC2)c2nn[nH]c2n1 [Example 37, 2-(2-((5-Amino-3H-[1,2,3]triazolo[4,5-b]pyridin-7-yloxy)methyl)phenoxy)-N-(cyclopropylmethyl)acetamide]",101 to 999 nM
17,"Nc1cc(OCc2ccccc2Oc2ccccc2)c2nn[nH]c2n1 [Example 38, 7-(2-Phenoxybenzyloxy)-3H-[1,2,3]triazolo[4,5-b]pyridin-5-amine]",1 to 100 nM
18,"COC(=O)c1ccc(F)c(COc2cc(N)nc3[nH]nnc23)c1 [Example 41, Methyl 3-((5-amino-3H-[1,2,3]triazolo[4,5-b]pyridin-7-yloxy)methyl)-4-fluorobenzoate]",1 to 100 nM
19,"CS(=O)(=O)c1cc(Cl)cc(COc2cc(N)nc3[nH]nnc23)c1 [Example 44, 7-(3-Chloro-5-(methylsulfonyl)benzyloxy)-3H-[1,2,3]triazolo[4,5-b]pyridin-5-amine]",101 to 999 nM

# Continued, values first:
row,IC50,SMILES
1,1 to 100 nM,"Nc1cc(OCc2ccc(OC(F)(F)F)cc2)c2nn[nH]c2n1 [Example 1, 7-(4-(Trifluoromethoxy)benzyloxy)-3H-[1,2,3]triazolo[4,5-b]pyridin-5-amine]"
2,1 to 100 nM,"Nc1cc(OCc2cccc(OC(F)(F)F)c2)c2nn[nH]c2n1 [Example 13, 7-(3-(Trifluoromethoxy)benzyloxy)-3H-[1,2,3]triazolo[4,5-b]pyridin-5-amine]"
3,1 to 100 nM,"Nc1cc(OCc2ccccc2OC(F)(F)F)c2nn[nH]c2n1 [Example 21, 7-(2-(Trifluoromethoxy)benzyloxy)-3H-[1,2,3]triazolo[4,5-b]pyridin-5-amine]"
4,1 to 100 nM,"COC(=O)c1cccc(COc2cc(N)nc3[nH]nnc23)c1Cl [Example 24, Methyl 3-((5-amino-3H-[1,2,3]triazolo[4,5-b]pyridin-7-yloxy)methyl)-2-chlorobenzoate]"
5,1 to 100 nM,COc1c(COc2cc(N)nc3[nH]nnc23)cccc1C(F)(F)F [Example 26]
6,1 to 100 nM,"Nc1cc(OCc2cc(OC(F)(F)F)ccc2F)c2nn[nH]c2n1 [Example 27, 7-(2-Fluoro-5-(trifluoromethoxy)benzyloxy)-3H-[1,2,3]triazolo[4,5-b]pyridin-5-amine]"
7,1 to 100 nM,"Nc1cc(OCc2cc(C(F)(F)F)ccc2Cl)c2nn[nH]c2n1 [Example 28, 7-(2-Chloro-5-(trifluoromethyl)benzyloxy)-3H-[1,2,3]triazolo[4,5-b]pyridin-5-amine]"
8,1 to 100 nM,"COc1ccc(C(F)(F)F)cc1COc1cc(N)nc2[nH]nnc12 [Example 30, 7-(2-Methoxy-5-(trifluoromethyl)benzyloxy)-3H-[1,2,3]triazolo[4,5-b]pyridin-5-amine]"
9,1 to 100 nM,"Nc1cc(OCc2c(Cl)cccc2OC(F)(F)F)c2nn[nH]c2n1 [Example 31, 7-(2-Chloro-6-(trifluoromethoxy)benzyloxy)-3H-[1,2,3]triazolo[4,5-b]pyridin-5-amine]"
10,1 to 100 nM,"COc1ccc(OC(F)(F)F)cc1COc1cc(N)nc2[nH]nnc12 [Example 35, 7-(2-Methoxy-5-(trifluoromethoxy)benzyloxy)-3H-[1,2,3]triazolo[4,5-b]pyridin-5-amine]"
